Source: patent US20220241308A1, “NEURONAL FUNCTION MODULATING AGENT” (University of Tsukuba, priority 2019, published 2022)

Experiments:
Assay type in all cases: cell-based
[1] = system: MAPK14 (mitogen-activated protein kinase 14); assay: Gene expression experiment (real-time PCR) in SH-SY5Y cells: MAPK14; details: 12.56 μM, amyloid β protein-treated cells, 24 h; compared to “Aβ”
Protocol: (§1) SH-SY5Y cells were seeded in 100 mm-cell dishes (BD Biocoat) at concentrations of 3.7×10^5 cells/mL (10 mL/dish) and cultured for 24 h at 37° C. and 5% CO2. Culture medium used was F12/DMEM (Gibco) supplemented with 1% non-essential amino acids (Gibco), 15% FBS (Bio West), and 1% penicillin/streptomycin (Lonza). After 24 h, the culture medium was completely removed with an aspirator, 10 mL of culture medium Opti-MEM(Gibco) was added to each dish, and the cells were cultured for 24 h at 37° C. and 5% CO2. RNA was extracted from the culture cells and analyzed for the expression of genes described below by real-time PCR (designated as “Control” in FIGS. 2 to 8).
(§2) RNA extraction was performed using ISOGEN Reagent (Nippon Gene Co., Ltd.) in accordance with the protocol recommended by Nippo n Gene Co., Ltd. (see URL: https://www.nippongene.com/siyaku/product/extraction/tds/tds_isogen-rna-dna-protein.pdf). Real-time PCR was performed according to the protocol recommended by Thermo Fisher Scientific using a reagent kit for TaqMan Real-Time PCR (Thermo Fisher Scientific) (see URL: https://assets.thermofisher.com/TFS-Assets/LSG/manuals/4304449_TaqManPCRMM_UG.pdf).
(§3) 24 h after seeding 100 mm-cell dishes (BD Biocoat) with SH-SY5Y cells, the culture medium was completely removed with an aspirator, amyloid β protein (Beta-Amyloid 1-42, AnaSpec) was mixed with Opti-MEM (Gibco) so that the final concentration was 5 μM, 10 mL of the mixture was added to each dish, the cells were cultured for 24 h at 37° C. and 5% CO2, and RNA was extracted. Except for performing the procedure described above, gene expression was analyzed as described above (designated as “Aβ” in FIGS. 2 to 8).
(§4) 24 h after seeding 100 mm-cell dishes (BD Biocoat) with SH-SY5Y cells, the culture medium was completely removed with an aspirator, Sample 1 was mixed with culture medium Opti-MEM(Gibco) so that the final concentration was 12.56 μM, 9,990 μL of the mixture was added to each dish and allowed to stand for 10 min, amyloid β protein (Beta-Amyloid 1-42, AnaSpec) was mixed with Opti-MEM (Gibco) so that the final concentration was […], 10 μL of the mixture was added to each well, the cells were cultured for 24 h at 37° C. and 5% CO2, and RNA was extracted. Except for performing the procedure described above, Gene expression was analyzed as described above (designated as “Aβ+M3,5G” in FIGS. 2 to 8).
(§5) Except that Sample 2 was used instead of Sample 1, gene expression was analyzed as described above (designated as “Aβ+M” in FIGS. 2 to 8).
(§6) Except that Sample 3 was used instead of Sample 1, gene expression was analyzed as described above (designated as “Aβ+M3G” in FIGS. 2 to 8). […]

SH-SY5Y cells = assay: Cell survival experiment (MTT), cell death induced by amyloid β protein; details: compound 12.56 μM, 72 h, compared to “Aβ”
Protocol: Each well of a 96-well plate (BD Biocoat) was seeded with SH-SY5Y cells (model of neuronal cells, ATCC) at a concentration of 2×10^5 cells/mL (100 μL/well) and the cells were cultured at 37° C. and 5% CO2 for 24 h. Culture medium used was F12/DMEM (Gibco) supplemented with 1% non-essential amino acids (Gibco), 15% FBS (Bio West), and 1% penicillin/streptomycin (Lonza).
After 24 h, the culture medium was completely removed with an aspirator, 100 μL of culture medium Opti-MEM (Gibco) was added to each well, and the cells were cultured at 37° C. and 5% CO2 for 24 h. […]
Absorbance at 570 nm was measured on a microplate reader (Sumitomo Dainippon Pharma) to measure the MTT formazan production to calculate % relative cell survival (designated as “Control” in FIG. 1).
24 h after seeding a 96-well plate (BD Biocoat) with SH-SY5Y cells, the culture medium was completely removed with an aspirator, amyloid β protein (Beta-Amyloid 1-42, AnaSpec) was mixed with Opti-MEM (Gibco) so that the final concentration was 15 μM, 100 μL of the mixture was added to each well, and the cells were cultured at 37° C. and 5% CO2 for 72 h to induce cell death. Except for performing the procedure described above, the MTT formazan production was measured as described above to calculate % relative cell survival (designated as “Aβ” in FIG. 1). […]

[2] = system: PI3KCA (phosphatidylinositol-4,5-bisphosphate 3-kinase catalyst subunit α); assay: Gene expression experiment (real-time PCR) in SH-SY5Y cells: PI3KCA; details: 12.56 μM, amyloid β protein-treated cells, 24 h; compared to “Aβ”
Protocol: as §1, §2, §3, §4, §5
(§7) Except that Sample 3 was used instead of Sample 1, gene expression was analyzed as described above (designated as “Aβ+M3G” in FIGS. 2 to 8).
(§8) 24 h after seeding 100 mm-cell dishes (BD Biocoat) with SH-SY5Y cells, the culture medium was completely removed with an aspirator, 10 mL of culture medium Opti-MEM(Gibco) mixed with Sample 1 was added to each dish, the cells were cultured for 24 h at 37° C. and 5% CO2, and RNA was extracted. Except for performing the procedure described above, gene expression was analyzed as described above (designated as “M3,5G” in FIGS. 2 to 8).

[3] = system: AKT1 (AKT serine/threonine kinase 1); assay: Gene expression experiment (real-time PCR) in SH-SY5Y cells: AKT1; details: 12.56 μM, amyloid β protein-treated cells, 24 h; compared to “Aβ”
Protocol: as §1, §2, §3, §4, §5, §7, §8

[4] = system: MAPK8 (mitogen-activated protein kinase 8); assay: Gene expression experiment (real-time PCR) in SH-SY5Y cells: MAPK8; details: 12.56 μM, amyloid β protein-treated cells, 24 h; compared to “Aβ”
Protocol: as §1, §2, §3, §4, §5, §6

[5] = system: MAP2K4 (mitogen-activated protein kinase 4); assay: Gene expression experiment (real-time PCR) in SH-SY5Y cells: MAP2K4; details: 12.56 μM, amyloid β protein-treated cells, 24 h; compared to “Aβ”
Protocol: as §1, §2, §3, §4, §5, §7, §8

[6] = system: PARP1 (poly(ADP-ribose) polymerase 1); assay: Gene expression experiment (real-time PCR) in SH-SY5Y cells: PARP1; details: 12.56 μM, amyloid β protein-treated cells, 24 h; compared to “Aβ”
Protocol: as §1, §2, §3, §4, §5, §6

CASP3 (caspase-3) = assay: Gene expression experiment (real-time PCR) in SH-SY5Y cells: CASP3; details: 12.56 μM, amyloid β protein-treated cells, 24 h; compared to “Aβ”
Protocol: as §1, §2, §3, §4, §5, §7, §8

With `COc1cc(-c2[o+]c3cc(O)cc(O)c3cc2O)cc(OC)c1O` [malvidin, Malvidin chloride, reference compound] the “expression of MAPK14” value [1] was “increase”, the “% relative cell survival” value (SH-SY5Y cells) was “Inhibition of cell death was also confirmed” and the “expression of PI3KCA” value [2] was “increase”. The “expression of AKT1” value [3] was “increase”, the “expression of MAPK8” value [4] was “increase” and the “expression of MAP2K4” value [5] was “increase”. The “expression of PARP1” value [6] was “increase” and the “expression of CASP3” value (CASP3 (caspase-3)) was “decrease”.
For `COc1cc(-c2[o+]c3cc(O)cc(O)c3cc2O[C@@H]2O[C@H](CO)[C@@H](O)[C@H](O)[C@H]2O)cc(OC)c1O.[Cl-]` [malvidin-3-glucoside, Malvidin-3-glucoside chloride, reference compound], the “expression of MAPK14” value [1] was “increase”, the “expression of PI3KCA” value [2] was “increase” and the “expression of AKT1” value [3] was “increase”. For the same molecule, the “expression of MAP2K4” value [5] was “increase” and the “expression of PARP1” value [6] was “increase”.
